Results published in patent US7884067B2, “Peptides derived from cadherin and methods of use thereof” (Mount Sinai School of Medicine of New York University, priority 2001, dated 2011).

B1: N-Cad/CTF2: chicken cytoplasmic domain of N-cadherin (N-Cad/CTF2) inserted into vector pECE, expressed in L cells (protein)
chain: KRRDKERQAKQLLIDPEDDVRDNILKYDEEGGGEEDQDYDLSQLQQPDTVEPDAIKPVGIRRLDERPIHAEPQYPVRSAAPHPGDIGDFINEGLKAADNDPTAPPYDSLLVFDYEGSGSTAGSLSSLNSSSSGGEQDYDYLNDWGPRFKKLADMYGGGDD

What was measured:
[1] = system: E-cadherin/catenin cytoskeletal complex; test: Ionomycin-induced CAJ disassembly in A431 cells, subcellular fractionation and Western blot; type: cell-based, human; conditions: 30 minutes preincubation with L-685,458, then ionomycin
Procedure: Subcellular fractionation. Confluent A431 cells (one 100 mm dish) were rinsed and scraped with 4° C. phosphate-buffered saline (PBS). Cells were then placed into 1 ml of buffer A (20 mM Tris-HCl [pH 7.5], 0.25 M sucrose, 10 mM EGTA, 2 mM EDTA, 1× Complete protease inhibitor cocktail, Roche), passed through a 27 gauge needle 10 times, and the obtained cell lysate was centrifuged at 500×g for 10 min at 4° C. The supernatant was then centrifuged at 120,000×g for 45 min at 4° C. to separate the cytosolic and crude membrane fractions. The pellet (crude membrane fraction) was washed twice with buffer A and resuspended by sonication in […] of buffer A containing 1% Triton X-100. The suspension was incubated at 4° C. for 30 min and then centrifuged at 120,000×g for 45 min at 4° C. to separate the membrane and Triton X-100-insoluble fractions. The pellet (Triton X-100-insoluble fraction) was washed twice with buffer A and solubilized by sonication in RIPA buffer. […] of proteins from the different fraction were analyzed by SDS-PAGE.
In stable cell-cell adhesion, the E-cadherin/β-catenin complex of the CAJ is anchored to the actin cytoskeleton via catenin and this association is manifested by the insolubility of the complex components in Triton X-100 (Baki et al., (2001)). Induction of apoptosis or calcium influx disrupts cadherin-mediated cell-cell adhesion by cleaving cadherin and disassembling the CAJ complexes. To determine whether the γ-secretase cleavage of E-cadherin is involved in the CAJ disassembly, calcium influx was induced with ionomycin (10 μM) in A431 cells preincubated for 30 minutes in the absence or presence of the γ-secretase inhibitor L-685,458. Cell extracts were fractionated, and analyzed on Western blots with antibodies against cytoplasmic E-cadherin C36 or β- and α-catenins. […] In addition, L-685,458 delayed the ionomycin-induced decrease of cytoskeletal β-catenin and α-catenin and inhibited their release to the soluble cytosol.

CBP = molecular target: T1, CBP (Mus musculus, UniProt P45481); test: Nuclear/cytosolic fractionation of transfected L cells (Western blot); type: cell-based
T1 construct: a process that relies on endogenous CBP and CREB; endogenous in cells; host or cells: L cells transfected with vector or pN-Cad/CTF2
Procedure: Subcellular fractionation. Transfected cells were washed in PBS, placed into 1 ml of buffer A (20 mM Tris-HCl, pH 7.5, 0.25 M sucrose, 10 mM EGTA, 2 mM EDTA, Ix Complete protease inhibitor cocktail), and then passed through a 27 gauge needle 10 times. Obtained lysates were centrifuged at 500×g for 10 minutes and pellets (nuclear fraction) were washed twice with 1 ml of buffer A containing 0.1% Triton X-100 and solubilized by sonication in RIPA buffer. Supernatants were centrifuged at 120,000×g for 45 minutes at 4° C. to separate cytosolic and crude membrane fractions. A 50 μg protein aliquot from the nuclear and cytosolic fractions was analyzed on WBs.
To determine how N-Cad/CTF2 affects CREB-mediated transcription, the following experiments were performed. L cells transfected either with vector (vector) or pN-Cad/CTF2 (N-Cad/CTF2) plasmids were fractionated into nuclear and cytosolic fractions, and probed on WBs with anti-CBP (FIG. 11A, panel a), anti-N-cadherin (FIG. 11A, panel b), anti-β-tubulin (FIG. 11A, panel c) or anti-phosphorylated CREB (P-CREB; FIG. 11A, panel d) antibodies. Extract from pN-Cad/CTF2-transfected L cells was immunoprecipitated either with non-immune serum (NI) or with antibodies against CBP (CBP), β-tubulin (β-Tub), E-cadherin (C36) or N-cadherin (C32). Obtained IPs were probed with anti-CBP (FIG. 11B, upper panel), anti-N-cadherin (FIG. 11B, middle panel) or anti-β-tubulin (FIG. 11B, lower panel) antibodies. For reference, cell lysate was also probed (FIG. 11B, first lane). L cells transiently transfected with pN-Cad/CTF2 were analyzed by immunofluorescence staining. Cells were triple-labeled with DAPI (blue), anti-CBP (red) and anti-N-cadherin (C32; green) antibodies. Nuclear extract from pN-Cad/CTF2-transfected L cells were incubated with biotinylated double-stranded DNA probes containing binding sequence for either CREB (FIG. 11C, left panel) or MEF-1 (FIG. 11C, right panel). […]

T1 sequence (P45481 whole entry): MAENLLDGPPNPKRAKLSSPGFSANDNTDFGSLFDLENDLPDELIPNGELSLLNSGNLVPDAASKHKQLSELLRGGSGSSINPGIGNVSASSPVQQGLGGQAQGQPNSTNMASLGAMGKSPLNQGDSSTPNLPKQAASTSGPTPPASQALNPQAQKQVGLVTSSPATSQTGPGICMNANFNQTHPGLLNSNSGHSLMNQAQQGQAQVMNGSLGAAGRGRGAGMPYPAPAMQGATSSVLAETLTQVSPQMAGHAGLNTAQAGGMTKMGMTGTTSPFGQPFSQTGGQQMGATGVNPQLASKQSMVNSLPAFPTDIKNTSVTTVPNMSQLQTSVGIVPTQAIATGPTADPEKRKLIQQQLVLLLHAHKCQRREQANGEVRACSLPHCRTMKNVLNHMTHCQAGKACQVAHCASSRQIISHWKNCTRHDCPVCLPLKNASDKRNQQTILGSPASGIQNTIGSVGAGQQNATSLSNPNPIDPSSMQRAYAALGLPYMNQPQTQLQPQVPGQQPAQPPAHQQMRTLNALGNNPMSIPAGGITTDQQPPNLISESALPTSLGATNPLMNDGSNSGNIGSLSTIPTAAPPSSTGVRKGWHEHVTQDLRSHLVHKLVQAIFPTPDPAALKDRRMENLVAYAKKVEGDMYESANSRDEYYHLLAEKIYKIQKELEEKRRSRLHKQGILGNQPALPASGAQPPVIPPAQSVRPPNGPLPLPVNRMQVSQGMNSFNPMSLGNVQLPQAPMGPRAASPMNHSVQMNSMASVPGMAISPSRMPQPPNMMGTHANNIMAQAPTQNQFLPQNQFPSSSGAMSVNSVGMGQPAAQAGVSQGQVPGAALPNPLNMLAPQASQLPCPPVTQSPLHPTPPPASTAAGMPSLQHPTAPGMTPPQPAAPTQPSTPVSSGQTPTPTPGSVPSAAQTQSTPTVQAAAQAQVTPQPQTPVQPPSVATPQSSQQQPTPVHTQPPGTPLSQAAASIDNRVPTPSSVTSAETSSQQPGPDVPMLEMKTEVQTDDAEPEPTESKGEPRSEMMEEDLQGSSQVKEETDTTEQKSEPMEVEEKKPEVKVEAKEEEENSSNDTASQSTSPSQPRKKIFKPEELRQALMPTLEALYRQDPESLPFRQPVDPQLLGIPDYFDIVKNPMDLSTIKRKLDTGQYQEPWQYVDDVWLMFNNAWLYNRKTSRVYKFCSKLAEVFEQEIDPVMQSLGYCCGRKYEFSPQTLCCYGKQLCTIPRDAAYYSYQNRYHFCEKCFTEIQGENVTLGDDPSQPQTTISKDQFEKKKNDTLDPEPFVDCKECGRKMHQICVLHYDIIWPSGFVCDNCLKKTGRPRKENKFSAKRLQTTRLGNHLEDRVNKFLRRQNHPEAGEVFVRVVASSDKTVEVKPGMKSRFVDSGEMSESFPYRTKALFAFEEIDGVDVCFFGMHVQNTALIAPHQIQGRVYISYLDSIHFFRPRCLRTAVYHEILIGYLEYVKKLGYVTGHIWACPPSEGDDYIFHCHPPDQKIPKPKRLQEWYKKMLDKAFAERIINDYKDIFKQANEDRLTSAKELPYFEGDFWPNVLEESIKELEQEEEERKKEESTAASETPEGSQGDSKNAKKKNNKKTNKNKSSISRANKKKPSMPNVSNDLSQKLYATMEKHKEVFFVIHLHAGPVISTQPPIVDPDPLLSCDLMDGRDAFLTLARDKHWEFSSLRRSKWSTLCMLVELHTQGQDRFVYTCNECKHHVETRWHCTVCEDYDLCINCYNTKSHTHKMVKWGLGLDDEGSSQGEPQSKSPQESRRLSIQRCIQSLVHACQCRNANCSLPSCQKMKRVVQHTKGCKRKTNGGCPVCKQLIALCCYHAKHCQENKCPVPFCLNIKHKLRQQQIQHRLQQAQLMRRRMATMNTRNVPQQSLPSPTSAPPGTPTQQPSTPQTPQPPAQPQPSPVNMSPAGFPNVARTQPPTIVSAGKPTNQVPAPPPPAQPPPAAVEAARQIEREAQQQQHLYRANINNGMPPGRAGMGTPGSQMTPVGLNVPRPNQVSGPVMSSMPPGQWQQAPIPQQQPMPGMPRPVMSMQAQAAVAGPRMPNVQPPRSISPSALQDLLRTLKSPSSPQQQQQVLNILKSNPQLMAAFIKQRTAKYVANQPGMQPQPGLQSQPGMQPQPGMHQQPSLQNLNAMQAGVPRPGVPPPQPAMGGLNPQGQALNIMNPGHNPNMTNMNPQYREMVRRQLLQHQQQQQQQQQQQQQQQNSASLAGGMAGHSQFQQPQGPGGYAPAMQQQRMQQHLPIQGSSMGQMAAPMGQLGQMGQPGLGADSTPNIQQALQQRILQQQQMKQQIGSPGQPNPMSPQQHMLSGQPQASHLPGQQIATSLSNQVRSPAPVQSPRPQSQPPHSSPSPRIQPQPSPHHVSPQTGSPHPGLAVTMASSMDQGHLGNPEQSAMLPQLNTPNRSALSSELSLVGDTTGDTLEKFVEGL

Molecule	ionomycin-induced decrease of cytoskeletal β-catenin and α-catenin [1]	ionomycin-induced degradation of the full length E-cadherin [1]	ionomycin-induced metabolism of cytoskeletal E-Cad/CTF1 [1]	production of soluble cytosolic E-Cad/CTF2 [1]	release of β-catenin and α-catenin to the soluble cytosol [1]	change of CREB phosphorylation (CBP; N-Cad/CTF2 overexpression, FIG. 11A panel d)	localization of phosphorylated CREB (CBP; transfection with N-Cad/CTF2, FIG. 11A panel d)	nuclear and cytosolic CBP (CBP; transfection with N-Cad/CTF2 vs vector, FIG. 11A)
CC(C)C[C@H](NC(=O)[C@H](Cc1ccccc1)C[C@@H](O)[C@H](Cc1ccccc1)NC(=O)OC(C)(C)C)C(=O)N[C@@H](Cc1ccccc1)C(N)=O [L-685,458]	delayed	partially inhibited	blocked	abolished	inhibited	–	–	–
B1	–	–	–	–	–	not detected	no effects	nuclear CBP decreased with a concomitant increase in cytosolic CBP
